Measurements from patent US9695195B2, “5-HT3 receptor antagonists” (Takeda Pharmaceutical Company Limited, priority 2012, dated 2017).

Tested on: subchronic PCP-induced impairment in cognition memory
Test: Rodent novel object recognition (NOR) assay in phencyclidine-induced cognitive deficits modeling schizophrenia
Format: in vivo, rat
Conditions: PCP-treated rats
From the text: The aim of this study was to investigate the ability of the compounds of the invention to improve subchronic PCP-induced impairment in cognition memory using the NOR task in the rat, a paradigm of relevance to cognition in schizophrenia. Adult male Sprague-Dawley rats (250-350 g; Harlan, USA) were used for the experiments. Animal were acclimated to the facility for 7 days prior to experimentation. Seven groups of 14 animals per group were used for the experiment. One group of animals received vehicle (0.9% saline twice daily) and the remaining six groups received PCP (2.5 mg/kg, s.c. twice daily) for 7 days, followed by 5-days drug free. On the test day, the animals were allowed to acclimate to the testing room for 30 min prior to initiation of experiments. Experiments were carried out in a white plexiglass chamber, designated as experimental arena. The arena was placed in a dark experimental room that was illuminated by a halogen lamp, providing a dim light to the arena.
Animals were placed in the arena for a 5 minute period to freely explore the test chamber in the absence of objects (habituation). Animals were then returned to their home cage immediately upon completion of habituation for a 120 min period. (1R,3R,5S)-8-Methyl-8-azabicyclo[3.2.1]octan-3-yl 1-(2,2,2-trifluoroethyl)-1H-indole-3-carboxylate (0.1, 1, 10 mg/kg s.c.), or vehicle (veh, saline) was administered 120 min prior to T1 and galantamine (5 mg/kg, i.p.) was administered 30 min prior to T1. Animals were returned to the arena which contained two identical objects (plastic balls) placed at one end of the arena (acquisition, T1), and allowed to explore for a 5 min period. The time spent exploring the two objects was recorded. Animals were once again returned to the home cage for a period of 120 min (ITI).
ITI was followed by the retention phase (T2) where one of the objects presented in the first trial was replaced by a novel object and animals were allowed to explore for an additional 5 min period. Again, the time spent exploring the two objects was recorded.
For the retention phase, the differences between the time spent exploring the familiar object and the novel object were examined. All sessions were recorded and scored blindly for the time exploring objects. Exploration is defined as touching the object or directing nose towards object at a distance less that 2 cm. A minimal exploration criterion was used such that only animals with exploration time of greater than 5 seconds per object were included.
Comparisons of all treatment groups were conducted using a one-way ANOVA followed by a Bonferroni's post hoc test for multiple comparisons.

SMILES | discrimination between familiar and novel objects (0.1 mg/kg s.c.) | discrimination between familiar and novel objects (1 mg/kg s.c.) | discrimination between familiar and novel objects (10 mg/kg s.c.) | discrimination between familiar and novel objects (galantamine 5 mg/kg i.p., 2 h ITI)
CN1[C@@H]2CC[C@H]1C[C@@H](OC(=O)c1cn(CC(F)(F)F)c3ccccc13)C2 | did not demonstrate a statistically significant discrimination | demonstrated a statistically significant discrimination | demonstrated a statistically significant discrimination | 
COc1ccc2c3c1O[C@H]1C[C@@H](O)C=C[C@@]31CCN(C)C2 [Galantamine, galantamine, reference compound] |  |  |  | statistically significant discrimination
